Test results published in ChEMBL document CHEMBL5154926, “Discovery of a Novel Series of Imipridone Compounds as Homo sapiens Caseinolytic Protease P Agonists with Potent Antitumor Activities In Vitro and In Vivo” (J Med Chem, 2022).
Converted amounts (≈) assume the structure as drawn.

Assays:
[1] = Aqueous solubility of the compound agitated for 24 hrs by HPLC analysis; format: physicochemical; details: buffer
[2] = tested on: HCT-116; test: Induction of apoptosis in human HCT-116 cells assessed as necrotic cells at 25 nM incubated for 48 hrs by Annexin V/FITC staining based flow cytometric method (reference value: 0.05%); format: functional
[3] = tested on: HCT-116; test: Induction of ROS generation in human HCT-116 cells at 12.5 nM measured after 24 hrs by DHE staining based fluorescence assay (reference value: […] %); format: functional
[4] = tested on: HCT-116; test: Induction of apoptosis in human HCT-116 cells assessed as late apoptotic cells at 12.5 nM incubated for 48 hrs by Annexin V/FITC staining based flow cytometric method (reference value: 1.57%); format: functional
[5] = tested on: HCT-116; test: Induction of apoptosis in human HCT-116 cells assessed as viable cells at 25 nM incubated for 48 hrs by Annexin V/FITC staining based flow cytometric method (reference value: 97.66%); format: functional; details: read-out: Activity
[6] = molecular target: Voltage-gated inwardly rectifying potassium channel KCNH2 (Homo sapiens, UniProt Q12809); test: Inhibition of hERG expressed in HEK293 cells by automated patch clamp assay; format: toxicity, cell-based
Sequence of Voltage-gated inwardly rectifying potassium channel KCNH2 (Q12809 whole entry): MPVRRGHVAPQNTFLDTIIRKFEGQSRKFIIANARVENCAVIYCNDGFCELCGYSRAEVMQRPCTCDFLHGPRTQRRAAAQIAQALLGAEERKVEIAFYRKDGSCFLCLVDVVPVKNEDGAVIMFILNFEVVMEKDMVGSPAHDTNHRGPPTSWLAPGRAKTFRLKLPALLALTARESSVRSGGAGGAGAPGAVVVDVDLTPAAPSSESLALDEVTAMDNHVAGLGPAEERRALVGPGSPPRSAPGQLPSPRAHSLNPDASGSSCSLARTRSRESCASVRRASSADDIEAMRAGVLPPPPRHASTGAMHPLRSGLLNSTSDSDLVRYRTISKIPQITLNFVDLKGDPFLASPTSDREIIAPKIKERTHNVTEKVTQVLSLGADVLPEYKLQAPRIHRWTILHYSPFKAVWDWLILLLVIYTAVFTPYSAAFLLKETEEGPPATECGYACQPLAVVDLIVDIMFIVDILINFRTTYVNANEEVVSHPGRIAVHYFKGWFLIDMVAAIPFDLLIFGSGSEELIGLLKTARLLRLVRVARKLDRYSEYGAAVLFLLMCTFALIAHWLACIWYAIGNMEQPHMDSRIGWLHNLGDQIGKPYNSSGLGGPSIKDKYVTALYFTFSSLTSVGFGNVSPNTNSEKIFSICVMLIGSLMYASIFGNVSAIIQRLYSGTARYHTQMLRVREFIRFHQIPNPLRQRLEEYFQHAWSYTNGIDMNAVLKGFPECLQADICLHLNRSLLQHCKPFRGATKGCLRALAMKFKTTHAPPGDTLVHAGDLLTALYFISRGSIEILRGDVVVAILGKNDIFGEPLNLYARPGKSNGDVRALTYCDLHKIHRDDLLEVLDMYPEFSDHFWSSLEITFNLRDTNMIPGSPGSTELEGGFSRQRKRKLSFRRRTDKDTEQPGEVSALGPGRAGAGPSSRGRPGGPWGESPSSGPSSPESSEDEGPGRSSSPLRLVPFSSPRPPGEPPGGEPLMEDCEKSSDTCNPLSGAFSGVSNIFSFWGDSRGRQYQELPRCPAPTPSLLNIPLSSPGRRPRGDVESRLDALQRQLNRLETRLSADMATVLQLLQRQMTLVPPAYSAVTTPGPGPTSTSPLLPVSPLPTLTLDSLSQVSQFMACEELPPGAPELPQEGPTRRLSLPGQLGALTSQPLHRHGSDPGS

[7] = tested on: HCT-116; test: Induction of apoptosis in human HCT-116 cells assessed as early apoptotic cells at 50 nM incubated for 48 hrs by Annexin V/FITC staining based flow cytometric method (reference value: […]); format: functional
[8] = tested on: HCT-116; test: Induction of apoptosis in human HCT-116 cells assessed as viable cells at 12.5 nM incubated for 48 hrs by Annexin V/FITC staining based flow cytometric method (reference value: 97.66%); format: functional; details: read-out: Activity
[9] = Stability in human liver microsomes assessed as half life at 1.5 uM measured upto 90 mins in presence of NADPH by LC/MS analysis; format: ADME, Microsome; details: human liver microsomes
[10] = tested on: HCT-116; test: Induction of ROS generation in human HCT-116 cells at 25 nM measured after 24 hrs by DHE staining based fluorescence assay (reference value: […] %); format: functional
[11] = Stability in human liver microsomes assessed as intrinsic clearance at 1.5 uM measured upto 90 mins in presence of NADPH by LC/MS analysis; format: ADME, Microsome; details: read-out: CLH
[12] = tested on: HCT-116; test: Induction of cell cycle arrest in human HCT-116 cells assessed as accumulation of cells at G0/G1 phase at 12.5 nM incubated for 48 hrs propidium iodide based flow cytometric analysis (reference value: 26 %); format: functional
[13] = tested on: HCT-116; test: Induction of ROS generation in human HCT-116 cells at 50 nM measured after 24 hrs by DHE staining based fluorescence assay (reference value: […] %); format: functional
[14] = tested on: HCT-116; test: Induction of apoptosis in human HCT-116 cells assessed as necrotic cells at 50 nM incubated for 48 hrs by Annexin V/FITC staining based flow cytometric method (reference value: 0.05%); format: functional
[15] = 1-octanol/water partition coefficient, log P of the compound agitated for 4 hrs measured by shake flask assay based HPLC analysis; format: physicochemical
[16] = tested on: HCT-116; test: Induction of apoptosis in human HCT-116 cells assessed as early apoptotic cells at 12.5 nM incubated for 48 hrs by Annexin V/FITC staining based flow cytometric method (reference value: […]); format: functional
[17] = tested on: HCT-116; test: Induction of apoptosis in human HCT-116 cells assessed as necrotic cells at 12.5 nM incubated for 48 hrs by Annexin V/FITC staining based flow cytometric method (reference value: 0.05%); format: functional
[18] = tested on: HCT-116; test: Induction of apoptosis in human HCT-116 cells assessed as viable cells at 50 nM incubated for 48 hrs by Annexin V/FITC staining based flow cytometric method (reference value: 97.66%); format: functional; details: read-out: Activity
[19] = Stability in rat liver microsomes assessed as half life at 1.5 uM measured upto 90 mins in presence of NADPH by LC/MS analysis; format: ADME, Microsome; details: 1.5 h
[20] = tested on: HCT-116; test: Induction of apoptosis in human HCT-116 cells assessed as late apoptotic cells at 25 nM incubated for 48 hrs by Annexin V/FITC staining based flow cytometric method (reference value: 1.57%); format: functional
[21] = tested on: HCT-116; test: Induction of apoptosis in human HCT-116 cells assessed as early apoptotic cells at 25 nM incubated for 48 hrs by Annexin V/FITC staining based flow cytometric method (reference value: […]); format: functional
[22] = tested on: HCT-116; test: Induction of cell cycle arrest in human HCT-116 cells assessed as accumulation of cells at G0/G1 phase at 50 nM incubated for 48 hrs propidium iodide based flow cytometric analysis (reference value: 26 %); format: functional
[23] = tested on: HCT-116; test: Induction of apoptosis in human HCT-116 cells assessed as late apoptotic cells at 50 nM incubated for 48 hrs by Annexin V/FITC staining based flow cytometric method (reference value: 1.57%); format: functional
[24] = tested on: SW-620; test: cells; details: Homo sapiens, SW-620, 48 h
Description: Antiproliferative activity against human SW-620 cells incubated for 48 hrs by CCK-8 assay

[25] = tested on: HCT-116; test: cells; details: Homo sapiens, HCT-116, 48 h
Description: Antiproliferative activity against human HCT-116 cells incubated for 48 hrs by CCK-8 assay

[26] = Antiproliferative activity against rat H9c2 cells incubated for 48 hrs by CCK-8 assay; format: toxicity, cell-based
[27] = tested on: U-251; test: Antiproliferative activity against human U-251 cells incubated for 48 hrs by CCK-8 assay; format: functional, cell-based; details: U-251, 48 h
[28] = tested on: MDA-MB-231; test: Antiproliferative activity against human MDA-MB-231 cells incubated for 48 hrs by CCK-8 assay; format: functional, cell-based; details: MDA-MB-231, 48 h
[29] = tested on: SW480; test: cells; details: Homo sapiens, SW480, 48 h
Description: Antiproliferative activity against human SW480 cells incubated for 48 hrs by CCK-8 assay

[30] = tested on: HCT-15; test: cells; details: Homo sapiens, HCT-15, 48 h
Description: Antiproliferative activity against human HCT-15 cells incubated for 48 hrs by CCK-8 assay

[31] = tested on: Raji; test: Antiproliferative activity against human Raji cells incubated for 48 hrs by CCK-8 assay; format: functional, cell-based
[32] = tested on: DLD-1; test: cells; details: Homo sapiens, DLD-1, 48 h
Description: Antiproliferative activity against human DLD-1 cells incubated for 48 hrs by CCK-8 assay

[33] = tested on: HCT-116; test: Potency index, ratio of ONC201 IC50 to test compound IC50 for antiproliferative activity against human HCT-116 cells by CCK-8 assay; format: functional
[34] = Antiproliferative activity against human HEK293 cells incubated for 48 hrs by CCK-8 assay; format: toxicity, cell-based
[35] = tested on: A549; test: Antiproliferative activity against human A549 cells incubated for 48 hrs by CCK-8 assay; format: functional, cell-based; details: A549, 48 h
[36] = tested on: HT-29; test: cells; details: Homo sapiens, HT-29, 48 h
Description: Antiproliferative activity against human HT-29 cells incubated for 48 hrs by CCK-8 assay

O=c1nc2n(c3c1CN(Cc1ccccc1)CC3)CCN2Cc1ccc(F)c(Br)c1
solubility at 24 h [1]: 100 µM (≈ 47.1 µg/mL) | Activity [2]: 0.12% | Activity [3]: 99.46% | Activity [4]: 2.82% | viability at […] [5]: 94.7% | IC50 [6]: 4910 nM | Activity [7]: 3.16% | viability at 0.0125 µM [8]: 95.8% | half-life at 1.5 µM [9]: 13 min | Activity [10]: 97.9% | CLint scaled at 1.5 µM [11]: 134 mL/min/kg | Activity [12]: 40% | Activity [13]: 99.4% | Activity [14]: 0.16% | logP at 4 h [15]: 3.21 | Activity [16]: 1.27% | Activity [17]: 0.07% | viability at 0.05 µM [18]: 91.6% | t1/2 [19]: 16.1 min | Activity [20]: 3% | Activity [21]: 2.14% | Activity [22]: 55% | Activity [23]: 5.12%

Cc1ccccc1CN1CCn2c1nc(=O)c1c2CCN(Cc2ccccc2)C1
IC50 [24]: 640 nM | IC50 [25]: 400 nM | IC50 at 48 h [26]: > 50000 nM | IC50 [27]: 2060 nM | IC50 [28]: 10500 nM | IC50 [29]: 1100 nM | IC50 [30]: 1280 nM | IC50 [31]: 1060 nM | IC50 [32]: 520 nM | Ratio IC50 [33]: 10 | IC50 at 48 h [34]: > 50000 nM | IC50 [35]: 2140 nM | IC50 [36]: 5300 nM
